Experimental data from ChEMBL document CHEMBL2417543, “Potential neuroprotective flavonoid-based inhibitors of CDK5/p25 from Rhus parviflora” (Bioorg Med Chem Lett, 2013).

Key:
Assay type in all cases: protein-complex assay
[1] = biological target: T1, Cyclin-dependent kinase 5/CDK5 activator 1 (Homo sapiens) (UniProt Q00535+Q15078); test: Inhibition of CDK5/p25 (unknown origin)-mediated incorporation of gamma33P into substrate assessed as change in enzyme activity at 50 uM after 20 mins by scintillation counting analysis in presence of 33P-ATP relative to negative control; set-up: scale not given: the % may be the effect or the level left
[2] = biological target: T1, Cyclin-dependent kinase 5/CDK5 activator 1 (Homo sapiens); test: Inhibition of CDK5/p25 (unknown origin)-mediated incorporation of gamma33P into substrate assessed as change in enzyme activity at 0.005 uM after 20 mins by scintillation counting analysis in presence of 33P-ATP relative to negative control; set-up: scale not given: the % may be the effect or the level left
[3] = biological target: T1, Cyclin-dependent kinase 5/CDK5 activator 1 (Homo sapiens); test: Inhibition of CDK5/p25 (unknown origin)-mediated incorporation of gamma33P into substrate assessed as change in enzyme activity at 0.05 uM after 20 mins by scintillation counting analysis in presence of 33P-ATP relative to negative control; set-up: scale not given: the % may be the effect or the level left
[4] = biological target: T1, Cyclin-dependent kinase 5/CDK5 activator 1 (Homo sapiens); test: Inhibition of CDK5/p25 (unknown origin)-mediated incorporation of gamma33P into substrate assessed as change in enzyme activity at 0.5 uM after 20 mins by scintillation counting analysis in presence of 33P-ATP relative to negative control; set-up: scale not given: the % may be the effect or the level left
[5] = biological target: T2, Cyclin-dependent kinase 5/CDK5 activator 1 (Homo sapiens, UniProt Q00535); test: Inhibition of CDK5/p25 (unknown origin)-mediated incorporation of gamma33P into substrate after 20 mins by scintillation counting analysis in presence of 33P-ATP
[6] = biological target: T1, Cyclin-dependent kinase 5/CDK5 activator 1 (Homo sapiens); test: Inhibition of CDK5/p25 (unknown origin)-mediated incorporation of gamma33P into substrate assessed as change in enzyme activity at 5 uM after 20 mins by scintillation counting analysis in presence of 33P-ATP relative to negative control; set-up: scale not given: the % may be the effect or the level left
[7] = biological target: T2, Cyclin-dependent kinase 5/CDK5 activator 1; test: Inhibition of CDK5/p25 (unknown origin) after 30 mins by SDS-PAGE analysis

T1 sequence (Q00535 whole entry): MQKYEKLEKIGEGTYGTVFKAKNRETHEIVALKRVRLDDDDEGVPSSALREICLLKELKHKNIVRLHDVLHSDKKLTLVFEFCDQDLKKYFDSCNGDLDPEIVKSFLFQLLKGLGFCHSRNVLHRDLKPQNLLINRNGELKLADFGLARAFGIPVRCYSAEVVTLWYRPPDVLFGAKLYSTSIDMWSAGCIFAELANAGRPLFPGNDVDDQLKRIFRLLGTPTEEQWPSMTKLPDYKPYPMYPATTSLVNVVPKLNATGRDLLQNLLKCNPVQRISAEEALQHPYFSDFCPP
T1 sequence (Q15078 99-307 partner limits assumed): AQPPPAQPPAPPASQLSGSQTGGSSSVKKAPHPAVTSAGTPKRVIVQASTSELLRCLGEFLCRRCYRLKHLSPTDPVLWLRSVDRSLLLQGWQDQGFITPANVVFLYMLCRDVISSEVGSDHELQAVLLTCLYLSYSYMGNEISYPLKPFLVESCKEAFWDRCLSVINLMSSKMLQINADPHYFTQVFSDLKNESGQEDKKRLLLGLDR
T2 sequence (Q00535 whole entry): as the sequence (Q00535 whole entry) above
T2 sequence (Q15078 whole entry, further chain): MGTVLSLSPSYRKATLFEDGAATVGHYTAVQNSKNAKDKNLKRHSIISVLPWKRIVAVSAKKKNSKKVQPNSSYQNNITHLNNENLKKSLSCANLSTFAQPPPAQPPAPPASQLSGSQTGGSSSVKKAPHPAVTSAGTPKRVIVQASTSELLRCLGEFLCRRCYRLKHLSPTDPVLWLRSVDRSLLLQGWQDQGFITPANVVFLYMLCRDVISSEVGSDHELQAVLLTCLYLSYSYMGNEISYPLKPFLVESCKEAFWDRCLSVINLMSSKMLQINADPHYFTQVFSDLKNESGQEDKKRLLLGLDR

Structure (SMILES)	Activity [1] [%]	Activity [2] [%]	Activity [3] [%]	Activity [4] [%]	IC50 [5] [µM]	Activity [6] [%]	IC50 [7] [µM]
O=C1c2c(O[C@@H]3O[C@H](CO)[C@@H](O)[C@H](O)[C@H]3O)cc(O)cc2OC1(O)Cc1ccc(O)cc1 (some centres undefined)	-15	-3	1	2	> 50	-7	44.4
O=C1/C(=C/c2ccc(O)c(O)c2)Oc2cc(O)ccc21 [SULFURETIN]							37
O=C1/C(=C/c2ccc(O)c(O)c2)Oc2cc(O[C@@H]3O[C@H](CO)[C@@H](O)[C@H](O)[C@H]3O)cc(O)c21	-65	-2	-4	-5	24.3	-20	22.3

The next compounds have a lower IC50 [7] than those just listed; values first:

Activity [1] [%]	Activity [2] [%]	Activity [3] [%]	Activity [4] [%]	IC50 [5] [µM]	Activity [6] [%]	IC50 [7] [µM]	Structure (SMILES)
						10.3	O=c1c(O[C@@H]2O[C@H](CO)[C@H](O)[C@H](O)[C@H]2O)c(-c2ccc(O)c(O)c2)oc2cc(O)cc(O)c12 [HYPEROSIDE]
						9.29	O=c1cc(-c2ccc(O)cc2)oc2c(-c3c(O)cc(O)c4c(=O)cc(-c5ccc(O)cc5)oc34)c(O)cc(O)c12 [CUPRESSUFLAVONE]
-88	0	-2	-20	4.81	-47	3.5	O=C1/C(=C/c2ccc(O)c(O)c2)Oc2cc(O)cc(O)c21 [AUREUSIDIN]
